Experiments:
[1] = 6-hour IV infusion every 21 days without premedication; cited from earlier work
[2] = tested on: drug-refractory ovarian cancer; conditions: in vivo; cited from earlier work
[3] = tested on: patients suffering from ovarian carcinoma; assay: Multi-center, randomized comparative study of taxol in platinum pretreated ovarian carcinoma: objective response; format: in vivo
Text: The high degree of success, greater than 10% of objective response, to treatment by patients suffering from drug refractory ovarian carcinoma is truly astonishing, since responses to drug refractory ovarian carcinoma are extremely uncommon. While experimental data is provided herein for the successful treatment of ovarian carcinoma with taxol using the present treatment protocol, it is to be understood that the treatment protocol can be used for the treatment of other forms of cancer with taxol, such as melanoma, renal cell carcinoma, and other cancers which are treatable with taxol.
Responses were evaluated every two cycles.
Patients with ovarian carcinoma included in the study had been treated with and were unresponsive to a minimum of one but no more than two platinum-containing chemotherapy regimens, and were required to have shown progression during or relapse after their last regimen of chemotherapy. Patients were treated every 21 days if allowed by toxicity.
While an emulsion of taxol in polyethoxylated caster oil in dehydrated alcohol is utilized as a vehicle in a preferred embodiment, it is contemplated that other pharmaceutically acceptable vehicles for taxol may be used.
This procedure enables the accurate accessment of the patient receiving the taxol.
Patients ranged between 18 and 75 years in age with an Eastern Cooperative Oncology Group, ECOG, performance status of 0, 1, or 2, and had to have recovered from all toxicities of previous treatment. Further, no prior chemotherapy or radiotherapy were allowed within four weeks prior to entry into the study (patients were also not entered into the study if there had been less than six weeks since prior mitomycin, nitrosureas, or high-dose carboplatin therapy). An adequate baseline bone marrow function was required, which was defined as a granulocyte count ≧2,000 cells/cmm and a platelet count ≧100,000 cells/cmm. Adequate hepatic and renal functions were required with normal hepatic function defined as total billirubin ≦1.5 times upper normal value and normal renal function defined as serum creatinine ≦1.5 times upper normal value. Patients with abdominal adenocarcinoma, a previous history of a trial or ventricular arrhythmias, congestive heart failure, myocardial infarction within six months preceding randomization, complete bowel obtruction, a pre-existing neuropathy <WHO grade 2, active infection, prior allergic reaction to drugs containing Cremaphor, or other serious medical condition were excluded from this study.
Eligible patients were randomized according to a computerized randomization log. During therapy, hematology data (hemoglobin, white blood cell count, granulocytes and platelets) were collected, and toxicity assessments were continuously made. After each cycle, a physical history update was recorded, as well as tumor measurement, performance status (ECOG), hematology, chemistry (serum creatinine, billirubin, alkaline phosphatase, (SLOT (AST), CA125) and a toxicity assessment. A quality of life assessment was also made after each cycle, and every two months until six months after treatment stopped.

[4] = Peripheral neuropathy symptoms (PNS) in the randomized taxol study; format: in vivo, patients
Procedure: A nurse remained with each patient for the first hour of each infusion. Temperature, pulse, blood pressure, and respiration were taken preinfusion, every 15 minutes for the first hour, every thirty minutes for the next 2 hours, hourly for the next 4 hours, and every other hour until the end of the infusion (for patients receiving the 24-hour infusion). Other observations were also documents, such as rash/redness of the skin, hives, vomiting, nausea, and any other symptoms including neuropathy and skin rashes.
80 of 157 patients (51%) experienced some sign of symptom of peripheral neurotoxicity. The incidents in the high dose arms was 66% (49/74), while the incidents in the low dose arms was 37% (31/83). The incidents of peripheral neuropathy in the long-term (24-hour) infusion was 48% (43/89), while the incidents of peripheral neuropathy in the short-term infusion arms was […] (37/68).

[5] = in vivo
Procedure: Patients with platinum pretreated recurrent ovarian cancer were randomized to a 135 or 175 mg/m^2 dose arm, administered as a 3-hour or 24-hour IV infusion, which was repeated every three weeks. Responses were evaluated every two cycles. All four treatment groups were matched for age, performance status, previous treatments, and time from last platinum therapy.
All rechallenge patients received a prolonged 24-hour infusion, even if the hypersensitivity reaction occurred during a 3-hour infusion. Dosage reductions in subsequent treatment courses were mandated for all patients having (1) a granulocyte count of less than 500 cells/cmm, (2) a platelet count of less than 50,000 cells/cmm for seven days or more, (3) febrile neutropenia, (4) infection, (5) hemmorage, (6) mucositis with vesiculation and/or ulcers, or (7) vomiting appearing despite anti-emitic premedication.

[6] = arm 135/3 (mg/m^2/infusion hours), n = 39
[7] = arm 135/24 (mg/m^2/infusion hours), n = 44
[8] = arm 175/3 (mg/m^2/infusion hours), n = 29
[9] = arm 175/4 (mg/m^2/infusion hours), n = 45

SMILES: CC(=O)O[C@H]1C(=O)[C@@]2(C)[C@H]([C@H](OC(=O)c3ccccc3)[C@]3(O)C[C@H](OC(=O)[C@H](O)[C@@H](NC(=O)c4ccccc4)c4ccccc4)C(C)=C1C3(C)C)[C@]1(OC(C)=O)CO[C@@H]1C[C@@H]2O [taxol]
- maximum tolerated dose [1]: 275 mg/m^2
- activity against drug-refractory ovarian cancer [2]: active agent
- stabilization of disease, patients with an early relapse after platinum [3]: 53%
- response to taxol in patients who had progressed on previous platinum containing chemotherapy ([3]; 3 out of 46): 7%
- response to taxol in patients considered resistant to platinum therapy ([3]; 14/114, progression on therapy or relapse within six months): 13%
- objective response rate, not evaluated and unevaluable patients excluded ([3]; 22/135 patients): 16%
- stabilization of disease, patients with disease truly refractory to platinum ([3]; 24/46): 52%
- response to taxol, platinum resistant patients with one previous regimen of platinum ([3]; in vivo): 15%
- response to taxol, platinum resistant patients with two previous regimens of platinum ([3]; in vivo): 10%
- patients with stable disease continued on taxol ([3]; of 157 patients): 51 patients
- patients asymptomatic prior to taxol who developed some peripheral neuropathy symptoms ([4]; 44 of 118 patients): 37%
- patients with some sign or symptom of peripheral neurotoxicity ([4]; 80 of 157, all arms): 51%
- First Occurence/Worsening of PNS By Cumulative Dose of Taxol: 201-400 mg/m^2 ([4]; TOTAL, all four arms, n = 157): 22 n (%)
- First Occurence/Worsening of PNS By Cumulative Dose of Taxol: 401-600 mg/m^2 ([4]; TOTAL, all four arms, n = 157): 4 n (%)
- First Occurence/Worsening of PNS By Cumulative Dose of Taxol: >600 mg/m^2 ([4]; TOTAL, all four arms, n = 157): 5 n (%)
- First Occurence/Worsening of PNS By Cumulative Dose of Taxol: ≦200 mg/m^2 ([4]; TOTAL, all four arms, n = 157): 23 n (%)
- Number of Patients Who Developed or Worsened PNS ([4]; TOTAL, all four arms, n = 157): 54 (34) n (%)
- First Occurence/Worsening of PNS By Courses: Course 1 [4, 6]: 4 n (%)
- First Occurence/Worsening of PNS By Courses: Course 3 [4, 6]: 1 n (%)
- First Occurence/Worsening of PNS By Courses: Course 4 and more [4, 6]: 3 n (%)
- First Occurence/Worsening of PNS By Cumulative Dose of Taxol: 201-400 mg/m^2 [4, 6]: 1 n (%)
- First Occurence/Worsening of PNS By Cumulative Dose of Taxol: 401-600 mg/m^2 [4, 6]: 2 n (%)
- First Occurence/Worsening of PNS By Cumulative Dose of Taxol: >600 mg/m^2 [4, 6]: 2 n (%)
- First Occurence/Worsening of PNS By Cumulative Dose of Taxol: ≦200 mg/m^2 [4, 6]: 4 n (%)
- Number of Patients Who Developed or Worsened PNS [4, 6]: 8 (21) n (%)
- First Occurence/Worsening of PNS By Courses: Course 1 [4, 7]: 3 n (%)
- First Occurence/Worsening of PNS By Courses: Course 2 [4, 7]: 2 n (%)
- First Occurence/Worsening of PNS By Courses: Course 3 [4, 7]: 1 n (%)
- First Occurence/Worsening of PNS By Courses: Course 4 and more [4, 7]: 1 n (%)
- First Occurence/Worsening of PNS By Cumulative Dose of Taxol: 201-400 mg/m^2 [4, 7]: 3 n (%)
- First Occurence/Worsening of PNS By Cumulative Dose of Taxol: 401-600 mg/m^2 [4, 7]: 1 n (%)
- First Occurence/Worsening of PNS By Cumulative Dose of Taxol: >600 mg/m^2 [4, 7]: 1 n (%)
- First Occurence/Worsening of PNS By Cumulative Dose of Taxol: ≦200 mg/m^2 [4, 7]: 3 n (%)
- Number of Patients Who Developed or Worsened PNS [4, 7]: 7 (16) n (%)
- First Occurence/Worsening of PNS By Courses: Course 1 [4, 8]: 7 n (%)
- First Occurence/Worsening of PNS By Courses: Course 2 [4, 8]: 9 n (%)
- First Occurence/Worsening of PNS By Courses: Course 3 [4, 8]: 1 n (%)
- First Occurence/Worsening of PNS By Courses: Course 4 and more [4, 8]: 1 n (%)
- First Occurence/Worsening of PNS By Cumulative Dose of Taxol: 201-400 mg/m^2 [4, 8]: 9 n (%)
- First Occurence/Worsening of PNS By Cumulative Dose of Taxol: 401-600 mg/m^2 [4, 8]: 1 n (%)
- First Occurence/Worsening of PNS By Cumulative Dose of Taxol: >600 mg/m^2 [4, 8]: 1 n (%)
- First Occurence/Worsening of PNS By Cumulative Dose of Taxol: ≦200 mg/m^2 [4, 8]: 7 n (%)
- Number of Patients Who Developed or Worsened PNS [4, 8]: 18 (62) n (%)
- First Occurence/Worsening of PNS By Courses: Course 1 [4, 9]: 9 n (%)
- First Occurence/Worsening of PNS By Courses: Course 2 [4, 9]: 8 n (%)
- First Occurence/Worsening of PNS By Courses: Course 3 [4, 9]: 1 n (%)
- First Occurence/Worsening of PNS By Courses: Course 4 and more [4, 9]: 2 n (%)
- First Occurence/Worsening of PNS By Cumulative Dose of Taxol: 201-400 mg/m^2 [4, 9]: 8 n (%)
- First Occurence/Worsening of PNS By Cumulative Dose of Taxol: 401-600 mg/m^2 [4, 9]: 2 n (%)
- First Occurence/Worsening of PNS By Cumulative Dose of Taxol: >600 mg/m^2 [4, 9]: 1 n (%)
- First Occurence/Worsening of PNS By Cumulative Dose of Taxol: ≦200 mg/m^2 [4, 9]: 9 n (%)
- Number of Patients Who Developed or Worsened PNS [4, 9]: 20 (44) n (%)
- incidence of peripheral neurotoxicity ([4]; high dose arms, 49/74): 66%
- peripheral neuropathy symptoms (PNS), about 135 mg/m^2 rather than about 175 mg/m^2 ([4]; in vivo): reduced
- incidence of peripheral neuropathy ([4]; long-term (24-hour) infusion, 43/89): 48%
- incidence of peripheral neurotoxicity ([4]; low dose arms, 31/83): 37%
- incidence of peripheral neuropathy ([4]; short-term infusion arms, 37/68): 50%
- patients who required a dose reduction ([5]; female, human, 9 weeks): 17%
- dose reduction required, long term infusion arms versus short term infusion arms [5]: more frequently
